Holding throughout (type): physicochemical
Data set [1] can be described thus: Soluble after 24 hours at room temperature. The settings on record: Table 2, 20/80 DMA/PEG400.
A short description of data set [2]: Viscosity of the composition. The conditions noted are these: Table 2.
Data set [3] in a line: Absorbance spectrometry at 340 nm to characterize solubility in each solvent mixture (measured concentration). The settings on record: Table 2. How it is done: (§1) Compositions were generally prepared by mixing with solvent and sonicated at room temperature in a water bath for 10 minutes. After a 15 minute waiting period at room temperature, the composition was sonicated again for 15 minutes at room temperature. Table 1 provides a list of formulations prepared for Compound 27332 according to certain embodiments. Table 2 provides a list of formulations prepared for 5-(methylamino)-2-naphthalen-1-yl-1,3-oxazole-4-carbonitrile (Compound ML351) according to certain embodiments. Compositions were analyzed by absorbance spectrometry at 340 nm to characterize the solubility of the compounds in each solvent mixture. Measurements were taken using a Cary60 spectrophotometer. Briefly, 2 ml absolute EtOH was added to cuvette, and instrument blanked. Then 2 μl of the excipient buffer was added, and scanned from 450 nm to 200 nm in order to confirm no large/interfering peak at 340 nm. Next, 2 μl of […] (in absolute EtOH) was added to the cuvette and scanned (450 nm to 200 nm)—this was repeated twice more for a total of three measurements. The difference in Abs(340) was determined for each subsequent addition. These three measurements were used to calculate the concentration (in molarity) using previously determined epsilon, and converted back to mg/ml.

Data set [4] is described as follows: Compositions prepared by mixing with solvent and sonication; soluble yes/no. The settings on record: Table 2. How it is done:
as §1

The mark [5] stands for this setting: 20/80 DMA/PEG400, Approx Conc. 50 mg/ml.
Setting [6] is: 20/80 DMA/PEG400, Approx Conc. 78.1 mg/ml.
The mark [7] stands for this setting: 20/80 DMA/PEG400, Approx Conc. 90.5 mg/ml.
[8] abbreviates: 20/80 Diethylacetamide/PEG400, Approx Conc. 50 mg/ml.
[9] abbreviates: Intralipid, Approx Conc. 0.250 mg/ml.

Values joined by “and” are separate entries in the source; they are usually repeats but may differ in a detail not shown here. Equal values may be shown once.

Consider `CNc1oc(-c2cccc3ccccc23)nc1C#N` [ML351, 5-(methylamino)-2-naphthalen-1-yl-1,3-oxazole-4-carbonitrile], for which the “Soluble after 24 hours at Room Temperature” value in data set [1] (Approx Conc. 50 mg/ml) and in data set [1] (Approx Conc. 78.1 mg/ml) was “yes” in each case. Further, the Viscosity entry in data set [2] (setting [5]), in data set [2] (setting [6]), in data set [2] (setting [7]), in data set [2] (setting [8]) and in data set [2] (setting [9]) was “low” in each case. Further, the “Measured Conc.” value in data set [3] (setting [5]) was 46.1 mg/mL; in data set [3] (setting [6]) it was 75.7 mg/mL; in data set [3] (setting [7]), 66.3 mg/mL and 54.9 mg/mL; in data set [3] (setting [8]) it was 52.5 mg/mL and 45.5 mg/mL; in data set [3] (setting [9]), 0.315 mg/mL. Also, the Soluble result in data set [4] (setting [5]) was “yes”; in data set [4] (setting [6]), “yes”; in data set [4] (setting [7]) it was “No”; in data set [4] (setting [8]), “yes”; in data set [4] (setting [9]), “yes”.

Values taken from patent US20260027123A1, “Compositions for Modulating Lipoxygenase and Methods of Using Same” (The Regents of the University of California, priority 2022, published 2026).
